In patent publication US20220274967A1, “BCAT MODULATION” (Icagen, LLC, priority 2019, published 2022):
Read-outs that look alike come from different tables or passages of the source.

How the values were obtained:
[1] = target: T1, BCAT1 (Homo sapiens, UniProt P54687); assay: BCAT1 enzyme inhibition (human), Glutamate Glo luminescence; assay type: biochemical
T1 sequence (P54687 1-386): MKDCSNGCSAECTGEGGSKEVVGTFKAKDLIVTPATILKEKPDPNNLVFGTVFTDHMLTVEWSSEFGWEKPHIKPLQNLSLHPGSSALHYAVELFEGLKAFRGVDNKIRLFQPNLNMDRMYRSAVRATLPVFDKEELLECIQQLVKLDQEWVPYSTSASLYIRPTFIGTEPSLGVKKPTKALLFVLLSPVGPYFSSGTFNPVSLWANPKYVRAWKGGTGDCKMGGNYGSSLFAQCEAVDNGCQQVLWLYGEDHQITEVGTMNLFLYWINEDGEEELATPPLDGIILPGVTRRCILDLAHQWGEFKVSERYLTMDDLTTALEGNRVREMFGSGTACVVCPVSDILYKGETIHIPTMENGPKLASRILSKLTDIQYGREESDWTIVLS
Method in brief: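 BCAT1 enzyme (0.06 ug/ml final) was preincubated with compound (3-0.0001 μM, 0.3% DMSO) for 10 or 60 min at room temperature in 50 mM Tris/0.05% TWEEN-20. The reaction then ran 10 min with 300 μM L-leucine and 250 μM alpha-ketoglutaric acid, was acid-quenched, and glutamate was read by luminescence. IC50 came from a 4-parameter fit, normalized to 10 μM VS558CSA inhibition.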

[2] = 3-HIB assay in vitro, direct MS assay of conditioned media; assay type: cell-based, human; details: GM00371 cells, read-out: 3HIB INHIBITION IC50 (μM) MEAN GM00371 cells Direct MS Assay
Method: Cell Plating: Cells (Coriell Institute GM00371 cells) were plated (96-well clear bottom sterile plate; Greiner 655098) at 10,000 cells/0.1 mL in Eagle's minimum essential medium (EMEM)/15% FBS (Gibco 16000-044) with a Combi dispenser in a cell culture hood and incubated at 37° C. and 5% CO2 overnight.
Compound Dilution: Compound were prepared as 33.3× intermediate dilution in DMSO in 96 well round polystyrene plates. For 30 μM final maximum start with 30 μL of 10 mM in DMSO. 10-12 1:3 serial dilutions were prepared from left to right (20 μL+40 μL DMSO). A 10× secondary dilution was prepare in EMEM by taking 7.5 μL 33.3× and transfer to replicate 96 well round polystyrene plates and then adding 242.5 μL EMEM A 1× final dilution in EMEM was prepared by taking 50 μL 10× dilution and transferring to replicate 96 well polypropylene assay block (Costar 3956) and adding 450 μL EMEM A control was prepared for maximal compound inhibition by taking 20 μL 10 mM Reference Compound A and adding 40 μL DMSO for a concentration of 3.3 mM To 7.5 μL of the 3.3 mM Reference Compound A solution and added 242.5 μL EMEM to make a 100 μM solution. The subsequent Reference Compound A solution was diluted with EMEM to achieve a final concentration of 10 μM. The structure of Reference Compound A is:
A control was prepared for maximal compound toxicity by taking 7.5 μL Reference Compound B and 242.5 μL EMEM to make […]. 50 μL of that 100 μM Reference Compound B solution was combined with 450 μL EMEM to achieve a concentration of 30 μM. The structure of Reference Compound B is
A DMSO Control was prepared by dilution 7.5 μL with 242.5 μL EMEM and taking 50 μL of the subsequent solution and diluting with 450 μL EMEM.
Compound Treatment: Media was aspirated from the cells and 100 μL of D-PBS (ThermoFisher 14190144) was added and then removed. 100 μL of diluted compound was added to the cells in the place and the cells were incubated at 37° C. and 5% CO2 for 24 hours.
Collection of Conditioned Media: For 3HIB MS detection: 20 μL conditioned media was removed from the cells and was transferred to a labeled replicate 96 well polypropylene assay plate (VWR 62408-946). And the plate was heat sealed and stored at −80° C.
3HIB Derivatization (Generalized SOP): The media collected for 3HIB MS detection was derivatized under the following conditions. Buffer: 0.1M 1-Ethyl-3-(3-dimethylaminopropyl)carbodiimide (EDC) dissolved in 0.1 M 2-(N-morpholino)ethanesulfonic acid ([…]) adjusted to pH 5.6. Buffer prep: weighed 10.6 g MES (Sigma #M-5287) per 500 mL HPLC grade H2O. Stored at 4° C.; 0.1M EDC: Weighed 1.971 g EDC (#E-1769) per 100 mL MES. Adjusted pH to 5.6 with ˜40 drops of 1N NaOH and stored at 4° C. Buffer has a short half-life should be used within two weeks.
Derivatization: To 20 μL sample was added 60 μL 5 uM 3HIB-4C13 internal standard followed by 20 μL EDC in MES and 100 μL MES. The plate was sealed and incubate at 50° C. for […] then centrifuged at 4000 rpm at 6° C. for 10 minutes. LC-MS analysis was then conducted and the data was processed using standard methods.

[3] = system: GM00371 cells; assay: Viability assay (Cell titer glo) in the 3-HIB assay; assay type: cell-based, human; details: read-out: 3HIB INHIBITION IC50 (μM) MEAN GM00371 cells Viablility Assay
Method in brief: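 GM00371 cells (10,000/well, EMEM/15% FBS) were exposed for 24 h at 37 °C to compounds in 1:3 serial dilution from 30 μM top concentration in EMEM. Reference Compound B at 30 μM served as maximal-toxicity control. Viability read as CellTiter-Glo luminescence.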

[4] = target: T2, BCAT2 (Homo sapiens, UniProt O15382); assay: BCAT2 enzyme inhibition (human); assay type: biochemical
T2 sequence (O15382 28-392): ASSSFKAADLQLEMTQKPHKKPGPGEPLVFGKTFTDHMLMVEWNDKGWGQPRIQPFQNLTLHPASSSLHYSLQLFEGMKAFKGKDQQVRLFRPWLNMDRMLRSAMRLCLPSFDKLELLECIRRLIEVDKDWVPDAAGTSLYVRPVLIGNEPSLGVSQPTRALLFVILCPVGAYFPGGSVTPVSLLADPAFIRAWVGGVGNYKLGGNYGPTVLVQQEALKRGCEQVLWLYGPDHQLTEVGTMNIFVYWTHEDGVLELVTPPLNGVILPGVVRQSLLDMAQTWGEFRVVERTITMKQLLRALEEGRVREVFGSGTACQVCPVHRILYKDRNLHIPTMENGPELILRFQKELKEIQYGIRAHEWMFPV
Method in brief: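 Cell-free coupled fluorescent assay: human BCATm converts branched-chain amino acids and α-ketoglutarate to L-glutamate, which L-glutamate oxidase and HRP link to resorufin formation from Amplex Red; activity taken as reduced glutamate signal.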

| IC50 ([2]; Homo sapiens, 24 h) | IC50 [4] | SMILES | IC50 [1] | IC50 ([2]; 24 hours) | IC50 ([3]; Homo sapiens, 24 hours) | IC50 ([3]; 24 hours) | IC50 ([3]; Homo sapiens, 24 h) |
| --- | --- | --- | --- | --- | --- | --- | --- |
|  |  | CNC(=O)c1ccc2c(c1)nc(-c1ccccn1)n2[C@@H]1CCC[C@H](NC(=O)c2ccc(Br)s2)C1 [Compound 102] | ≥ 1000 nM | 0.5 to 1 µM | 0.5 to 1 µM |  |  |
|  |  | CNC(=O)c1ccc2c(c1)nc(-c1ccccn1)n2[C@@H]1CCC[C@H](NC(=O)c2ccc(Br)s2)C1 [Compound 105] | 500 to 1000 nM | 0.1 to 0.5 µM |  | 0.5 to 1 µM |  |
| 0.1 to 0.5 µM | < 100 nM | CNC(=O)c1ccc2c(c1)nc(-c1ncccc1O)n2[C@H]1CCC[C@@H](NC(=O)c2ccc(Br)s2)C1 [Compound 152] |  |  |  |  | 0.1 to 0.5 µM |
| 0.1 to 0.5 µM | < 100 nM | CNC(=O)c1ccc2c(c1)nc(-c1c(O)cccc1F)n2[C@H]1CCC[C@@H](NC(=O)c2ccc(C#N)s2)C1 [Compound 172] |  |  |  |  | 0.1 to 0.5 µM |
| 0.1 to 0.5 µM | < 100 nM | CNC(=O)c1ccc2c(c1)nc(-c1c(F)cccc1F)n2[C@H]1CCC[C@@H](NC(=O)c2ccc(C#N)s2)C1 [Compound 174] |  |  |  |  | 0.5 to 1 µM |
| < 0.1 µM | < 100 nM | CNC(=O)c1ccc2c(c1)nc(-c1cc(F)ccc1F)n2[C@H]1CCC[C@@H](NC(=O)c2ccc(Br)s2)C1 [Compound 175] |  |  |  |  | 0.1 to 0.5 µM |
| 0.1 to 0.5 µM | < 100 nM | CNC(=O)c1ccc2c(c1)nc(-c1ccc(F)cc1F)n2[C@H]1CCC[C@@H](NC(=O)c2ccc(Br)s2)C1 [Compound 176] |  |  |  |  | 0.1 to 0.5 µM |
| < 0.1 µM | < 100 nM | CNC(=O)c1ccc2c(c1)nc(-c1c(O)cccc1F)n2[C@H]1CCC[C@@H](NC(=O)c2ccc(Cl)s2)C1 [Compound 177] |  |  |  |  | 0.1 to 0.5 µM |
| ≥ 1 µM | < 100 nM | CNC(=O)c1ccc2c(c1)nc(-c1ncccc1C#N)n2[C@H]1CCC[C@@H](NC(=O)c2ccc(C#N)s2)C1 [Compound 178] |  |  |  |  | ≥ 1 µM |
| ≥ 1 µM | < 100 nM | CNC(=O)c1ccc2c(c1)nc(-c1cccs1)n2[C@H]1CCC[C@@H](NC(=O)c2ccc(C#N)s2)C1 [Compound 181] |  |  |  |  | ≥ 1 µM |
| 0.5 to 1 µM | < 100 nM | CNC(=O)c1ccc2c(c1)nc(-c1ncccc1C#N)n2[C@H]1CCC[C@@H](NC(=O)c2ccc(Br)s2)C1 [Compound 185] |  |  |  |  | 0.5 to 1 µM |
| 0.5 to 1 µM | < 100 nM | CNC(=O)c1ccc2c(c1)nc(-c1ncccc1C#N)n2[C@H]1CCC[C@@H](NC(=O)c2ccc(Cl)s2)C1 [Compound 192] |  |  |  |  | 0.5 to 1 µM |
| < 0.1 µM | < 100 nM | CNC(=O)c1ccc2c(c1)nc(-c1ncccc1F)n2[C@H]1CCC[C@@H](NC(=O)c2ccc(Cl)s2)C1 [Compound 197] | < 100 nM |  |  |  |  |
| < 0.1 µM | < 100 nM | CNC(=O)c1ccc2c(c1)nc(-c1ncccc1F)n2[C@H]1CCC[C@@H](NC(=O)c2ccc(Br)s2)C1 [Compound 199] | < 100 nM |  |  |  |  |
| 0.1 to 0.5 µM | < 100 nM | O=C(N[C@@H]1CCC[C@H](n2c(-c3ccccn3)nc3cc(Cl)ncc32)C1)c1ccc(Br)s1 [Compound 296] |  |  |  |  | 0.5 to 1 µM |

| SMILES | IC50 ([2]; Homo sapiens, 24 h) | IC50 [4] | IC50 [1] | IC50 ([2]; 24 hours) | IC50 ([3]; Homo sapiens, 24 hours) | IC50 ([3]; 24 hours) | IC50 ([3]; Homo sapiens, 24 h) |
| --- | --- | --- | --- | --- | --- | --- | --- |
| CNC(=O)c1ccc2c(c1)nc(-c1cccs1)n2[C@H]1CCC[C@@H](NC(=O)c2ccc(Br)s2)C1 [Compound 193] | 0.1 to 0.5 µM |  | 500 to 1000 nM |  | 0.5 to 1 µM |  |  |
